Assay [1] relates to Bacillus subtilis. The assay is described as follows: Antibacterial activity against Bacillus subtilis ATCC 6633 at 256 ug/ml incubated for 18 to 24 hrs by CLSI based microdilution broth method. In kind it is functional, organism-based. Conditions: dose 256.0 µg/ml, time 18-24 hrs. Background: In broth dilution the organism is exposed to a series of concentrations in liquid medium.

For assay [2], the system named is Enterococcus faecalis. The assay is described as follows: Antibacterial activity against Enterococcus faecalis ATCC 19433 at 256 ug/ml incubated for 18 to 24 hrs by CLSI based microdilution broth method. In kind it is functional, organism-based. Conditions: dose 256.0 µg/ml, time 18-24 hrs.
The test system of assay [3] is Streptococcus pyogenes. Kind of assay: Antibacterial activity against Streptococcus pyogenes ATCC 12344 at 256 ug/ml incubated for 18 to 24 hrs by CLSI based microdilution broth method. Format: functional, organism-based. The note with it: dose 256.0 µg/ml, time 18-24 hrs.
Assay [4] relates to Staphylococcus aureus. The assay is described as follows: Antibacterial activity against Staphylococcus aureus ATCC 25923 at 256 ug/ml incubated for 18 to 24 hrs by CLSI based microdilution broth method. The note with it: dose 256.0 µg/ml, time 18-24 hrs. In kind it is functional, organism-based.
For assay [5], the system named is Escherichia coli. The assay is described as follows: Antibacterial activity against Escherichia coli CCUGT at 256 ug/ml incubated for 18 to 24 hrs by CLSI based microdilution broth method. In kind it is functional, organism-based. Conditions: dose 256.0 µg/ml, time 18-24 hrs.
For assay [6], the system named is Klebsiella pneumoniae. The assay is described as follows: Antibacterial activity against Klebsiella pneumoniae ATCC 13833 at 256 ug/ml incubated for 18 to 24 hrs by CLSI based microdilution broth method. Format: functional, organism-based. Conditions: dose 256.0 µg/ml, time 18-24 hrs.
The test system of assay [7] is Acinetobacter baumannii. Kind of assay: Antibacterial activity against Acinetobacter baumannii ATCC 17978 at 256 ug/ml incubated for 18 to 24 hrs by CLSI based microdilution broth method. In kind it is functional, organism-based. Conditions: dose 256.0 µg/ml, time 18-24 hrs.
In assay [8] the test system is Pseudomonas aeruginosa. The assay is described as follows: Antibacterial activity against Pseudomonas aeruginosa ATCC 27853 at 256 ug/ml incubated for 18 to 24 hrs by CLSI based microdilution broth method. Format: functional, organism-based. The note with it: dose 256.0 µg/ml, time 18-24 hrs.
Assay [9] concerns Bacillus subtilis. Kind of assay: Antibacterial activity against Bacillus subtilis ATCC 6633 incubated for 18 to 24 hrs by CLSI based microdilution broth method. Format: functional. Conditions: time 18-24 hrs.
Assay [10] deals with Enterococcus faecalis. The assay is described as follows: Antibacterial activity against Enterococcus faecalis ATCC 19433 incubated for 18 to 24 hrs by CLSI based microdilution broth method. In kind it is functional. The note with it: time 18-24 hrs.
Assay [11] concerns Streptococcus pyogenes. The assay is described as follows: Antibacterial activity against Streptococcus pyogenes ATCC 12344 incubated for 18 to 24 hrs by CLSI based microdilution broth method. Format: functional. Conditions: time 18-24 hrs.
For assay [12], the system named is Staphylococcus aureus. Kind of assay: Antibacterial activity against Staphylococcus aureus ATCC 25923 incubated for 18 to 24 hrs by CLSI based microdilution broth method. In kind it is functional. Conditions: time 18-24 hrs.
Assay [13] relates to Escherichia coli. Kind of assay: Antibacterial activity against Escherichia coli CCUGT incubated for 18 to 24 hrs by CLSI based microdilution broth method. Conditions: Escherichia coli, CCUGT; time 18-24 hrs; read-out: MIC. Format: functional.
Assay [14] concerns Klebsiella pneumoniae. The assay is described as follows: Antibacterial activity against Klebsiella pneumoniae ATCC 13833 incubated for 18 to 24 hrs by CLSI based microdilution broth method. Conditions: Klebsiella pneumoniae, ATCC 13833; time 18-24 hrs; read-out: MIC. In kind it is functional.
The subject of assay [15] is Acinetobacter baumannii. The assay is described as follows: Antibacterial activity against Acinetobacter baumannii ATCC 17978 incubated for 18 to 24 hrs by CLSI based microdilution broth method. Format: functional. Conditions: Acinetobacter baumannii, ATCC 17978; time 18-24 hrs.
The subject of assay [16] is Pseudomonas aeruginosa. The assay is described as follows: Antibacterial activity against Pseudomonas aeruginosa ATCC 27853 incubated for 18 to 24 hrs by CLSI based microdilution broth method. In kind it is functional. The note with it: Pseudomonas aeruginosa, ATCC 27853; time 18-24 hrs.
Assay [17] concerns Escherichia coli. Kind of assay: Synergistic antibacterial activity against Escherichia coli CCUGT incubated for 18 to 24 hrs in presence of colistin by CLSI based microdilution broth method. Format: functional. Conditions: time 18-24 hrs.
Assay [18] concerns Escherichia coli. The assay is described as follows: Synergistic antibacterial activity against Escherichia coli CCUGT assessed as potentiation fold by measuring MIC to MAC ratio incubated for 18 to 24 hrs in presence of colistin by CLSI based microdilution broth method. Conditions: time 18-24 hrs. In kind it is functional.
Assay [19] has as its system Klebsiella pneumoniae. The assay is described as follows: Synergistic antibacterial activity against Klebsiella pneumoniae ATCC 13833 incubated for 18 to 24 hrs in presence of colistin by CLSI based microdilution broth method. In kind it is functional. The note with it: time 18-24 hrs.
In assay [20] the test system is Klebsiella pneumoniae. The assay is described as follows: Synergistic antibacterial activity against Klebsiella pneumoniae ATCC 13833 assessed as potentiation fold by measuring MIC to MAC ratio incubated for 18 to 24 hrs in presence of colistin by CLSI based microdilution broth method. In kind it is functional. Conditions: time 18-24 hrs.
Assay [21] deals with Pseudomonas aeruginosa. Kind of assay: Synergistic antibacterial activity against Pseudomonas aeruginosa ATCC 27853 incubated for 18 to 24 hrs in presence of colistin by CLSI based microdilution broth method. Format: functional. Conditions: time 18-24 hrs.
Assay [22] concerns Pseudomonas aeruginosa. The assay is described as follows: Synergistic antibacterial activity against Pseudomonas aeruginosa ATCC 27853 assessed as potentiation fold by measuring MIC to MAC ratio incubated for 18 to 24 hrs in presence of colistin by CLSI based microdilution broth method. Conditions: time 18-24 hrs. In kind it is functional.
Assay [23] relates to Acinetobacter baumannii. The assay is described as follows: Synergistic antibacterial activity against Acinetobacter baumannii ATCC 17978 incubated for 18 to 24 hrs in presence of colistin by CLSI based microdilution broth method. In kind it is functional. The note with it: time 18-24 hrs.
In assay [24] the test system is Acinetobacter baumannii. The assay is described as follows: Synergistic antibacterial activity against Acinetobacter baumannii ATCC 17978 assessed as potentiation fold by measuring MIC to MAC ratio incubated for 18 to 24 hrs in presence of colistin by CLSI based microdilution broth method. Format: functional. The note with it: time 18-24 hrs.
Assay [25] relates to Acinetobacter baumannii. Kind of assay: Antibacterial activity against Acinetobacter baumannii N50 incubated for 18 to 24 hrs by CLSI based microdilution broth method. Format: functional. The note with it: time 18-24 hrs.
Assay [26] relates to Acinetobacter baumannii. The assay is described as follows: Synergistic antibacterial activity against Acinetobacter baumannii N50 incubated for 18 to 24 hrs in presence of colistin by CLSI based microdilution broth method. Format: functional. Conditions: time 18-24 hrs.
Assay [27] concerns Acinetobacter baumannii. The assay is described as follows: Synergistic antibacterial activity against Acinetobacter baumannii N50 assessed as potentiation fold by measuring MIC to MAC ratio incubated for 18 to 24 hrs in presence of colistin by CLSI based microdilution broth method. The note with it: time 18-24 hrs. Format: functional.

Structures are written as SMILES. Activity calls are given as the source filed them. The rule behind the calls is not given here.

As to `[N-]=[N+]=NCCCCCCCCN(CCCCCCCCNC(c1ccccc1)(c1ccccc1)c1ccccc1)C(=O)N(CCCCCCCCN=[N+]=[N-])CCCCCCCCNC(c1ccccc1)(c1ccccc1)c1ccccc1`, the result in the assay with Bacillus subtilis [1], with Enterococcus faecalis [2], in the assay on Streptococcus pyogenes [3], in the assay with Staphylococcus aureus [4], with Escherichia coli [5] and with Klebsiella pneumoniae [6] was inactive. Further, the outcome in the assay on Acinetobacter baumannii [7] and with Pseudomonas aeruginosa [8] was inactive.
A word on the MIC: it is the lowest concentration found to suppress growth. As for `O=C(O)C(F)(F)F.[N-]=[N+]=NCCCCCCCCN(CCCCCCCCNC(=N)N)C(=O)N(CCCCCCCCN=[N+]=[N-])CCCCCCCCNC(=N)N`, the MIC in the assay on Bacillus subtilis [9] turned out to be 8 µg/mL; in the assay with Enterococcus faecalis [10] it was 16 µg/mL; against Streptococcus pyogenes [11] it was 8 µg/mL; in the assay on Staphylococcus aureus [12], 2 µg/mL; in the assay on Escherichia coli [13], 32 µg/mL; in the assay on Klebsiella pneumoniae [14], 32 µg/mL. The figures for the minimal inhibitory concentration (MIC) against Acinetobacter baumannii [15], in the assay with Pseudomonas aeruginosa [16] and with Acinetobacter baumannii [25] were 64 µg/mL, above 256 µg/mL and 32 µg/mL, respectively. Besides, the MAC with Escherichia coli [17] came out at 32 µg/mL; with Klebsiella pneumoniae [19], 2 µg/mL; in the assay with Pseudomonas aeruginosa [21], 16 µg/mL; in the assay on Acinetobacter baumannii [23] it was 64 µg/mL; in the assay with Acinetobacter baumannii [26], 32 µg/mL. Moreover, the Ratio is on record as 1 in the assay on Escherichia coli [18]; 16 in the assay with Klebsiella pneumoniae [20]; above 16 in the assay on Pseudomonas aeruginosa [22]; 1 with Acinetobacter baumannii [24]; 1 in the assay with Acinetobacter baumannii [27].

(Values after ChEMBL document CHEMBL5500347, “An update on antibacterial AlkylGuanidino Ureas: Design of new derivatives, synergism with colistin and data analysis of the whole library” (2024).)
